Patent US20250289789A1, “REVERSIBLE LYSINE COVALENT MODIFIERS OF CDK2 AND USES THEREOF” (Terremoto Biosciences, Inc., priority 2023, published 2025)
Like-named read-outs stand apart in the source and are kept apart here.

Legend:
Format in all cases: cell-based
[1] = biological target: T1, CDK4-NanoLuc fusion with CCND1 in 293T or 293 cells (Homo sapiens, UniProt P11802); assay: NanoBRET Target Engagement (TE) Intracellular Kinase Assay, CDK4/CCND1; details: 2-hour incubation
T1 construct: host or cells: 293T (ATCC CRL-3216) or 293 (ATCC CRL-1573)
T1 sequence (P11802 whole entry, the tested form may be a part): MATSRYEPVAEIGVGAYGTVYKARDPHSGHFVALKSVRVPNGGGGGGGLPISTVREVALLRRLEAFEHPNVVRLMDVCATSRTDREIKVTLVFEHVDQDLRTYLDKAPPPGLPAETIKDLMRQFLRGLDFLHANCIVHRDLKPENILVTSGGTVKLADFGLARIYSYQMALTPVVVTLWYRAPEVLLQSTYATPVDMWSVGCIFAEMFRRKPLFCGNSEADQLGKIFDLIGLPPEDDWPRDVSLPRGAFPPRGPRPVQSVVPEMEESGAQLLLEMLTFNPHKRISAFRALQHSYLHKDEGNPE
T1 sequence (P24385 whole entry partner, the tested form may be a part): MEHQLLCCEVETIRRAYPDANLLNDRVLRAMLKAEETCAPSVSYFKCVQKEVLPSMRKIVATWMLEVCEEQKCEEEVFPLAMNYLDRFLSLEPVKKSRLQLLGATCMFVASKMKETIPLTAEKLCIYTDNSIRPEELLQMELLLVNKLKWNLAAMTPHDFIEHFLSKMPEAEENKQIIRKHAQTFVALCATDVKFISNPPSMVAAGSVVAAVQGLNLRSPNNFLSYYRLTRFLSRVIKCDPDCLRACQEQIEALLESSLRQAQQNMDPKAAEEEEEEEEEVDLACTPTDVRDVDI

[2] = biological target: T2, CDK1-NanoLuc fusion with CCNB1 in 293T or 293 cells (Homo sapiens, UniProt P06493); assay: NanoBRET Target Engagement (TE) Intracellular Kinase Assay, CDK1/CCNB1; details: 2-hour incubation
T2 construct: host or cells: 293T (ATCC CRL-3216) or 293 (ATCC CRL-1573)
T2 sequence (P06493 whole entry, the tested form may be a part): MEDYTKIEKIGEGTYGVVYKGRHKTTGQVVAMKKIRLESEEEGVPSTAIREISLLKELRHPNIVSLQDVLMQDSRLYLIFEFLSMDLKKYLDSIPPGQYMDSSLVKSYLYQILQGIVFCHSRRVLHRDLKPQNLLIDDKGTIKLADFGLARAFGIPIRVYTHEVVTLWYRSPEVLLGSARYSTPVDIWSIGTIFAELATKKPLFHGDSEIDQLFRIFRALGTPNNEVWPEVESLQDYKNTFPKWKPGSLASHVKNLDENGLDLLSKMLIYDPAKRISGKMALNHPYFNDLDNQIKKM
T2 sequence (P14635 whole entry partner, the tested form may be a part): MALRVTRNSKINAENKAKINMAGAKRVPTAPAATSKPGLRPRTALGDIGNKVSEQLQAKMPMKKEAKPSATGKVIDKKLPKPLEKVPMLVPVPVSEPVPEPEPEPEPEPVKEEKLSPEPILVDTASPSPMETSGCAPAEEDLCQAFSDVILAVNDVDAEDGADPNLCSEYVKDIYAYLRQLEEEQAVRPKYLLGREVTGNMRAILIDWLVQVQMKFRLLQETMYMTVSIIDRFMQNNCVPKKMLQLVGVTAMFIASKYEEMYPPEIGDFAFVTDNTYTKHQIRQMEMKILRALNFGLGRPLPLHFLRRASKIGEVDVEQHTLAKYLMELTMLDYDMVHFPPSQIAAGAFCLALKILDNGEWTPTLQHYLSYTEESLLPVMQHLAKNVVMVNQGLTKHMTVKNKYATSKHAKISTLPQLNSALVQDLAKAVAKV
Procedure, shortened: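 IC50 derived by four-parameter logistic fit of DMSO-normalized acceptor/donor (610/450 nm) BRET ratio. Compound and Tracer K-10 were applied together for 2 h at 37° C to 293 or 293T cells transfected 24 h earlier with CDK1-NanoLuc fusion and cyclin B1.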

[3] = tested on: Phospho-Rb Ser807/811 in OVCAR3 cells; assay: OVCAR3 Phospho-Rb Ser807/811 HTRF assay; details: OVCAR3 cells, Phospho-Rb Ser807/811 HTRF, 1 hour incubation, read-out: pRb-OVCAR3 IC50
Experimental: Cells were trypsinized and resuspended in 1 mM hydroxyurea (Sigma; H8627), 90% RPMI and 10% fetal bovine serum. […] Dose response curve normalized to DMSO control was plotted using four-parameter logistic model for IC50 calculation.

[4] = biological target: T3, CDK2-NanoLuc fusion with CCNE1 in 293T or 293 cells (Homo sapiens, UniProt P24941); assay: NanoBRET Target Engagement (TE) Intracellular Kinase Assay, CDK2/CCNE1; details: 2-hour incubation
T3 construct: host or cells: 293T (ATCC CRL-3216) or 293 (ATCC CRL-1573)

[5] = NanoBRET TE intracellular kinase assay, read-out: NanoBRET-CDK4/D1 IC50
[6] = NanoBRET TE intracellular kinase assay, read-out: NanoBRET-CDK1/B1 IC50
[7] = NanoBRET TE intracellular kinase assay, read-out: NanoBRET-CDK2/E1 IC50

SMILES | IC50 [1, 5] [nM] | IC50 [2, 6] [nM] | IC50 ([3]; Homo sapiens, OVCAR-3, 1 h) [nM] | IC50 [4, 7] [nM] | IC50 ([1]; NanoBRET-CDK4/D1 IC50, NanoBRET TE intracellular kinase assay) [nM] | IC50 ([2]; NanoBRET-CDK1/B1 IC50, NanoBRET TE intracellular kinase assay) [nM] | IC50 ([3]; Homo sapiens, OVCAR-3) [nM] | IC50 ([4]; NanoBRET-CDK2/E1 IC50, NanoBRET TE intracellular kinase assay) [nM] | IC50 [3] [nM]
COC[C@H](C)NC(=O)O[C@@H]1CC[C@H](c2cc(NC(=O)COc3cc(OC)cc(O)c3C=O)n[nH]2)C1 [Compound 200] | 8410 | 8.83 | 27.7 | 5.07 |  |  |  |  | 
COc1cc(O)c(C=O)c(OCC(=O)Nc2cc([C@H]3CC[C@@H](OC(=O)N4[C@H](C)COC[C@@H]4C)C3)[nH]n2)c1 [Compound 201] | 4680 | 12.9 | 28.4 | 4.1 |  |  |  |  | 
COc1cc(O)c(C=O)c(OCC(=O)Nc2cc([C@H]3CC[C@@H](OC(=O)NC[C@@H](C)OC)C3)[nH]n2)c1 [Compound 202] | > 10000 | 41.6 | 70.5 | 5.67 |  |  |  |  | 
COc1cc(O)c(C=O)c(OCC(=O)Nc2cc([C@H]3CC[C@@H](OC(=O)N4C[C@H]5C[C@@H]4CO5)C3)[nH]n2)c1 [Compound 203] | > 10000 | 18.6 | 60 | 7.37 |  |  |  |  | 
COc1cc(O)c(C=O)c(OCC(=O)Nc2cc([C@H]3CC[C@@H](OC(=O)N4C[C@@H]5C[C@H]4CO5)C3)[nH]n2)c1 [Compound 204] | > 9510 | 12.2 | 34.6 | 4.54 |  |  |  |  | 
COc1cc(O)c(C=O)c(OCC(=O)Nc2cc([C@H]3CC[C@@H](OC(=O)N4CCOCC45CC5)C3)[nH]n2)c1 [Compound 205] | 2040 | 4.59 | 26.3 | 3.48 |  |  |  |  | 
COc1cc(O)c(C=O)c(OCC(=O)Nc2cc([C@H]3CC[C@@H](OC(=O)N4CCOC[C@H]4C)C3)[nH]n2)c1 [Compound 206] | > 10000 | 5.62 | 27.4 | 2.46 |  |  |  |  | 
COc1cc(O)c(C=O)c(OCC(=O)Nc2cc([C@H]3CC[C@@H](OC(=O)N4C5CCC4COC5)C3)[nH]n2)c1 [Compound 207, (1R,3S)-3-{5-[2-(2-formyl-3-hydroxy-5-methoxyphenoxy)acetamido]-2H-pyrazol-3-yl}cyclopentyl 3-oxa-8-azabicyclo[3.2.1]octane-8-carboxylate] |  |  |  |  | 4130 | 6.54 | 25.7 | 2.25 | 
COc1cc(O)c(C=O)c(OCC(=O)Nc2cc([C@H]3CC[C@@H](OC(=O)NCCC#N)C3)[nH]n2)c1 [Compound 208] | 7910 | 21.2 | 41.8 | 9.87 |  |  |  |  | 
COCC1(NC(=O)O[C@@H]2CC[C@H](c3cc(NC(=O)COc4cc(OC)cc(O)c4C=O)n[nH]3)C2)CC1 [Compound 209] | 3870 | 5.94 | 28.7 | 6.55 |  |  |  |  | 
COCCOCCNC(=O)O[C@@H]1CC[C@H](c2cc(NC(=O)COc3cc(OC)cc(O)c3C=O)n[nH]2)C1 [Compound 210] | > 10000 | 26.3 | 68.5 | 6.9 |  |  |  |  | 
CCOc1cc(O)c(C=O)c(OCC(=O)Nc2cc([C@H]3CC[C@@H](OC(=O)N4CCC4(C)C)C3)[nH]n2)c1 [Compound 211, (1R,3S)-3-(3-(2-(5-ethoxy-2-formyl-3-hydroxyphenoxy)acetamido)-1H-pyrazol-5-yl)cyclopentyl 2,2-dimethylazetidine-1-carboxylate] | 2120 | 9.01 | 34.5 | 2.68 |  |  |  |  | 
COc1cc(O)c(C=O)c(OCC(=O)Nc2cc([C@H]3CC[C@@H](OC(=O)N4[C@@H](C)COC[C@@H]4C)C3)[nH]n2)c1 [Compound 212] | 1070 | 6.31 | 21.8 | 2.98 |  |  |  |  | 
COCCNC(=O)O[C@@H]1CC[C@H](c2cc(NC(=O)COc3cc(OC)cc(O)c3C=O)n[nH]2)C1 [Compound 213] | > 10000 | 30.1 | 35.6 | 4.72 |  |  |  |  | 
COc1cc(OC)c2c(c1C=O)C[C@H](C(=O)Nc1cc([C@H]3C[C@@H](OC(=O)NC(C)C)C3)[nH]n1)C2 [Compound 214] | > 3460 | 155 | 375 | 56.8 |  |  |  |  | 
COc1cc(O)c(C=O)c(OCC(=O)Nc2cc([C@H]3CC[C@@H](OC(=O)NC4(C#N)CC4)C3)[nH]n2)c1 [Compound 215] | > 6270 | 20.6 | 41.5 | 10.3 |  |  |  |  | 
C#C[C@H](C)NC(=O)O[C@@H]1CC[C@H](c2cc(NC(=O)COc3cc(OC)cc(O)c3C=O)n[nH]2)C1 [Compound 216] | 9910 | 15 | 64.6 | 4.44 |  |  |  |  | 

SMILES | IC50 [1, 5] [nM] | IC50 [2, 6] [nM] | IC50 ([3]; Homo sapiens, OVCAR-3, 1 h) [nM] | IC50 [4, 7] [nM] | IC50 ([1]; NanoBRET-CDK4/D1 IC50, NanoBRET TE intracellular kinase assay) [nM] | IC50 ([2]; NanoBRET-CDK1/B1 IC50, NanoBRET TE intracellular kinase assay) [nM] | IC50 ([3]; Homo sapiens, OVCAR-3) [nM] | IC50 ([4]; NanoBRET-CDK2/E1 IC50, NanoBRET TE intracellular kinase assay) [nM] | IC50 [3] [nM]
COc1cc(O)c(C=O)c(OCC(=O)Nc2cc([C@H]3CC[C@@H](OC(=O)NN4CCCC4)C3)[nH]n2)c1 [Compound 217] | > 10000 | 44.7 | 60.9 | 2.98 |  |  |  |  | 
C#CC1(NC(=O)O[C@@H]2CC[C@H](c3cc(NC(=O)COc4cc(OC)cc(O)c4C=O)n[nH]3)C2)CC1 [Compound 218] | 2900 | 5.53 | 18.2 | 2.33 |  |  |  |  | 
COc1cc(O)c(C=O)c(OCC(=O)Nc2cc([C@H]3CC[C@@H](OC(=O)N4C[C@@H]5CC[C@H]4C5)C3)[nH]n2)c1 [Compound 219] | 844 | 4.23 | 22.6 | 1.95 |  |  |  |  | 
COc1cc(O)c(C=O)c(OCC(=O)Nc2cc([C@H]3CC[C@@H](OC(=O)N4C5CCCC4C5)C3)[nH]n2)c1 [Compound 220] | 1460 | 8.36 | 32.1 | 2.89 |  |  |  |  | 
CCCNC(=O)O[C@@H]1CC[C@H](c2cc(NC(=O)COc3cc(OC)cc(O)c3C=O)n[nH]2)C1 [Compound 221] | 5250 | 8.56 | 24.1 | 1.71 |  |  |  |  | 
C#C[C@@H]1CCCN1C(=O)O[C@@H]1CC[C@H](c2cc(NC(=O)COc3cc(OC)cc(O)c3C=O)n[nH]2)C1 [Compound 222] | 2830 | 7.61 | 63.7 | 3.84 |  |  |  |  | 
COc1cc(O)c(C=O)c(OCC(=O)Nc2cc([C@H]3C[C@@H](OC(=O)NC(C)C)C3)[nH]n2)c1 [Compound 223] | > 10000 | 13.1 |  | 4.13 |  |  |  |  | 65.6
COc1cc(O)c(C=O)c(OCC(=O)Nc2cc([C@H]3CC[C@@H](OC(=O)N4CCCO4)C3)[nH]n2)c1 [Compound 224] | > 10000 | 28.9 | 93.6 | 2.64 |  |  |  |  | 
CCCN(C)C(=O)O[C@@H]1CC[C@H](c2cc(NC(=O)COc3cc(OC)cc(O)c3C=O)n[nH]2)C1 [Compound 225] | 2600 | 5.09 | 18.7 | 2.49 |  |  |  |  | 
COc1cc(O)c(C=O)c(OCC(=O)Nc2cc([C@H]3CC[C@@H](OC(=O)N4CC5CC(C5)C4)C3)[nH]n2)c1 [Compound 226] | 3060 | 9.17 | 63.7 | 2.45 |  |  |  |  | 
COc1cc(OC)c(C=O)c(OCC(=O)Nc2cc([C@H]3CC[C@@H](OC(=O)N4CCC4(C)C)C3)[nH]n2)c1 [Compound 227] | 1290 | 0.61 | 18.1 | 1.73 |  |  |  |  | 
COc1cc(O)c(C=O)c(OCC(=O)Nc2cc([C@H]3CC[C@@H](OC(=O)N4CC5CC4C5)C3)[nH]n2)c1 [Compound 228] | 4170 | 4.25 | 34.4 | 2.27 |  |  |  |  | 
COc1cc(O)c(C=O)c(OCC(=O)Nc2cc([C@H]3CC[C@@H](OC(=O)N4C5CCC4CC5)C3)[nH]n2)c1 [Compound 229] | 1900 | 1.97 | 28.8 | 1.75 |  |  |  |  | 
COc1cc(O)c(C=O)c(OCC(=O)Nc2cc([C@H]3CC[C@@H](OC(=O)N4CCOCC4)C3)[nH]n2)c1 [Compound 230] | > 10000 | 21 | 57.8 | 2.85 |  |  |  |  | 
COc1cc(O)c(C=O)c(OCC(=O)Nc2cc([C@H]3CC[C@@H](OC(=O)N4C5COCC4C5)C3)[nH]n2)c1 [Compound 231, (1R,3S)-3-{5-[2-(2-formyl-3-hydroxy-5-methoxyphenoxy)acetamido]-2H-pyrazol-3-yl}cyclopentyl 3-oxa-6-azabicyclo[3.1.1]heptane-6-carboxylate] | 1430 | < 2.64 | 18.5 | 3.2 |  |  |  |  | 
COc1cc(O)c(C=O)c(OCC(=O)Nc2cc([C@H]3CC[C@@H](OC(=O)N4CCCC45CC5)C3)[nH]n2)c1 [Compound 232] | 2300 | 4.84 | 40.2 | 2.18 |  |  |  |  | 
COc1cc(O)c(C=O)c(OCC(=O)Nc2cc([C@H]3CC[C@@H](OC(=O)N4CC[C@H](F)C4)C3)[nH]n2)c1 [Compound 233] | 2690 | 2.19 | 22.1 | 2.47 |  |  |  |  | 
